Test system: MV-4-11 cells
Assay: Gene expression microarray analysis (Affymetrix PrimeView) and GSEA
Type: cell-based, human
Set-up: RFU PODN (11730768_x_at) / Fold change /veh PODN (11730768_x_at) / RFU LINC00158 (11744669_a_at) / Fold change /veh LINC00158 (11744669_a_at) / RFU DUSP10 (11751237_a_at) / Fold change /veh DUSP10 (11751237_a_at) / RFU ID3 (11757404_x_at) / Fold change /veh ID3 (11757404_x_at) / RFU PLEKHG5 (11737974_s_at) / Fold change /veh PLEKHG5 (11737974_s_at) / RFU LRRC4B (11730491_at) / Fold change /veh LRRC4B (11730491_at) / RFU GIMAP4 (11747438_a_at) / Fold change /veh GIMAP4 (11747438_a_at) / RFU KRT8 (11758183_x_at) / Fold change /veh KRT8 (11758183_x_at) / RFU CNN1 (11734310_a_at) / Fold change /veh CNN1 (11734310_a_at) / RFU VPS37D (11726825_at) / Fold change /veh VPS37D (11726825_at) / RFU C10orf10 (11716522_x_at) / Fold change /veh C10orf10 (11716522_x_at) / RFU KIR2DL2 /// KIR2DL4 /// KIR2DL5A /// KIR2DL5B /// KIR2DS1 /// KIR2DS2 /// KIR2DS3 /// KIR2DS4 /// KIR3DL3 /// KIR3DL3 /// KIR3DS1 (11738374_at) / Fold change /veh KIR2DL2 /// KIR2DL4 /// KIR2DL5A /// KIR2DL5B /// KIR2DS1 /// KIR2DS2 /// KIR2DS3 /// KIR2DS4 /// KIR3DL3 /// KIR3DL3 /// KIR3DS1 (11738374_at) / RFU C1QL1 (11718748_at) / Fold change /veh C1QL1 (11718748_at) / RFU TMPRSS4 (11747572_a_at) / Fold change /veh TMPRSS4 (11747572_a_at) / RFU HAMP (11756126_x_at) / Fold change /veh HAMP (11756126_x_at) / RFU RNFT2 (11725882_a_at) / Fold change /veh RNFT2 (11725882_a_at) / RFU NR4A2 (11747474_a_at) / Fold change /veh NR4A2 (11747474_a_at) / RFU ABCC12 (11746883_a_at) / Fold change /veh ABCC12 (11746883_a_at) / RFU TMEM136 (11760407_x_at) / Fold change /veh TMEM136 (11760407_x_at) / RFU CLDN22 /// WWC2 (11732394_at) / Fold change /veh CLDN22 /// WWC2 (11732394_at) / RFU HLA-DPB1 (11760878_x_at) / Fold change /veh HLA-DPB1 (11760878_x_at) / RFU SPINT1 (11716480_a_at) / Fold change /veh SPINT1 (11716480_a_at) / RFU GAP43 (11754022_s_at) / Fold change /veh GAP43 (11754022_s_at) / RFU A4GNT (11735810_at) / Fold change /veh A4GNT (11735810_at) / RFU PRB3 (11715151_x_at) / Fold change /veh PRB3 (11715151_x_at) / RFU TUBB4B (11761932_at) / Fold change /veh TUBB4B (11761932_at) / RFU CAPN14 (11732068_a_at) / Fold change /veh CAPN14 (11732068_a_at) / RFU TMCC2 (11721928_a_at) / Fold change /veh TMCC2 (11721928_a_at) / RFU IRGQ (11745062_a_at) / Fold change /veh IRGQ (11745062_a_at) / RFU FAM174B (11720279_a_at) / Fold change /veh FAM174B (11720279_a_at) / RFU TMPRSS4 (11748680_a_at) / Fold change /veh TMPRSS4 (11748680_a_at) / RFU FAM212B (11763350_a_at) / Fold change /veh FAM212B (11763350_a_at) / RFU PLEKHG5 (11743358_a_at) / Fold change /veh PLEKHG5 (11743358_a_at) / RFU ZSCAN30 (11745921_a_at) / Fold change /veh ZSCAN30 (11745921_a_at) / RFU CMKLR1 (11741424_a_at) / Fold change /veh CMKLR1 (11741424_a_at) / RFU LOC101060620 /// MAPK8IP1 (11723275_at) / Fold change /veh LOC101060620 /// MAPK8IP1 (11723275_at) / RFU SPTSSB (11747773_x_at) / Fold change /veh SPTSSB (11747773_x_at) / RFU PRSS12 (11739890_at) / Fold change /veh PRSS12 (11739890_at) / RFU BIN1 (11741810_x_at) / Fold change /veh BIN1 (11741810_x_at) / RFU WNT11 (11732464_a_at) / Fold change /veh WNT11 (11732464_a_at) / RFU C10orf10 (11716521_a_at) / Fold change /veh C10orf10 (11716521_a_at) / RFU C5orf56 (11738089_at) / Fold change /veh C5orf56 (11738089_at) / RFU CYB561 (11721691_x_at) / Fold change /veh CYB561 (11721691_x_at) / RFU ANKRD19P (11752326_a_at) / Fold change /veh ANKRD19P (11752326_a_at) / RFU OR2T12 /// OR2T33 /// OR2T8 (11738714_s_at) / Fold change /veh OR2T12 /// OR2T33 /// OR2T8 (11738714_s_at) / RFU VCAN (11748164_a_at) / Fold change /veh VCAN (11748164_a_at) / RFU JSRP1 (11732532_at) / Fold change /veh JSRP1 (11732532_at) / RFU KRTAP10-11 (11738290_x_at) / Fold change /veh KRTAP10-11 (11738290_x_at) / RFU MYO3A (11730013_a_at) / Fold change /veh MYO3A (11730013_a_at) / RFU EBF3 (11725865_a_at) / Fold change /veh EBF3 (11725865_a_at) / RFU CAMK2N1 (11719241_x_at) / Fold change /veh CAMK2N1 (11719241_x_at) / RFU C5orf56 (11738088_a_at) / Fold change /veh C5orf56 (11738088_a_at) / RFU OLFML3 (11715873_a_at) / Fold change /veh OLFML3 (11715873_a_at) / RFU LOC100653217 /// NTM (11731650_a_at) / Fold change /veh LOC100653217 /// NTM (11731650_a_at) / RFU MAPK11 (11762145_a_at) / Fold change /veh MAPK11 (11762145_a_at) / RFU FIZ1 (11724087_x_at) / Fold change /veh FIZ1 (11724087_x_at) / RFU OASL (11726364_x_at) / Fold change /veh OASL (11726364_x_at) / RFU SOX15 (11748057_x_at) / Fold change /veh SOX15 (11748057_x_at) / RFU CD79A (11719716_a_at) / Fold change /veh CD79A (11719716_a_at) / RFU HIST1H1D (11736915_at) / Fold change /veh HIST1H1D (11736915_at) / RFU CASKIN2 (11723855_a_at) / Fold change /veh CASKIN2 (11723855_a_at) / RFU LOC730098 (11760151_x_at) / Fold change /veh LOC730098 (11760151_x_at) / RFU OR4N2 (11742367_at) / Fold change /veh OR4N2 (11742367_at) / RFU PRRT2 (11749266_a_at) / Fold change /veh PRRT2 (11749266_a_at) / RFU SNX32 (11753110_a_at) / Fold change /veh SNX32 (11753110_a_at) / RFU CDHR5 (11726645_a_at) / Fold change /veh CDHR5 (11726645_a_at) / RFU RCAN1 (11760418_a_at) / Fold change /veh RCAN1 (11760418_a_at) / RFU FAM167A (11723789_a_at) / Fold change /veh FAM167A (11723789_a_at) / RFU FAM26E (11764081_at) / Fold change /veh FAM26E (11764081_at) / RFU ISYNA1 (11749810_s_at) / Fold change /veh ISYNA1 (11749810_s_at) / RFU ACY1 (11761880_at) / Fold change /veh ACY1 (11761880_at) / RFU 11764098_at / Fold change /veh 11764098_at / RFU SAMD14 (11745864_x_at) / Fold change /veh SAMD14 (11745864_x_at) / RFU NPB (11741838_a_at) / Fold change /veh NPB (11741838_a_at) / RFU TMPRSS6 (11731388_a_at) / Fold change /veh TMPRSS6 (11731388_a_at) / RFU KRTAP10-2 (11738614_at) / Fold change /veh KRTAP10-2 (11738614_at) / RFU ARHGAP8 /// PRR5-ARHGAP8 (11727945_x_at) / Fold change /veh ARHGAP8 /// PRR5-ARHGAP8 (11727945_x_at) / RFU KRTAP5-7 /// NADSYN1 (11734609_at) / Fold change /veh KRTAP5-7 /// NADSYN1 (11734609_at) / RFU RASL12 (11751679_a_at) / Fold change /veh RASL12 (11751679_a_at) / RFU CDKN2B (11736163_a_at) / Fold change /veh CDKN2B (11736163_a_at) / RFU PRF1 (11729649_at) / Fold change /veh PRF1 (11729649_at) / RFU, ZNF638 /// ZNF638-IT1 / Fold change vs veh, ZNF638 /// ZNF638-IT1 / RFU, PANK3 / Fold change vs veh, PANK3 / RFU, SH3YL1 / Fold change vs veh, SH3YL1 / RFU, ZEB2 / Fold change vs veh, ZEB2 / RFU, NRIP1 / Fold change vs veh, NRIP1 / RFU, PTTG1IP / Fold change vs veh, PTTG1IP / RFU, CAPN2 / Fold change vs veh, CAPN2 / RFU, MED14 / Fold change vs veh, MED14 / RFU, SNORA58 / Fold change vs veh, SNORA58 / RFU, C1orf63 / Fold change vs veh, C1orf63 / RFU, LRRFIP1 / Fold change vs veh, LRRFIP1 / RFU, NDUFAF7 / Fold change vs veh, NDUFAF7 / RFU, SLC12A2 / Fold change vs veh, SLC12A2 / RFU, IBTK / Fold change vs veh, IBTK / RFU, ESF1 / Fold change vs veh, ESF1 / Fold change vs veh, TMEM50B / RFU, TAOK1 / Fold change vs veh, TAOK1 / RFU, ACBD3 / Fold change vs veh, ACBD3 / RFU, TMA16 / Fold change vs veh, TMA16 / RFU, RWDD3 / Fold change vs veh, RWDD3 / RFU, BCAT1 / Fold change vs veh, BCAT1 / RFU, EDEM3 / Fold change vs veh, EDEM3 / RFU, TMEM33 / Fold change vs veh, TMEM33 / RFU, WDR75 / Fold change vs veh, WDR75 / RFU, AHCTF1 / Fold change vs veh, AHCTF1 / RFU, TFRC / Fold change vs veh, TFRC / RFU, ZDHHC17 / Fold change vs veh, ZDHHC17 / RFU, NOM1 / Fold change vs veh, NOM1 / RFU, ARL8B / Fold change vs veh, ARL8B / RFU, ZBTB11 / Fold change vs veh, ZBTB11 / RFU, TAMM41 / Fold change vs veh, TAMM41 / RFU, KIAA1704 /// LOC100996395 / Fold change vs veh, KIAA1704 /// LOC100996395 / RFU, ING1 / Fold change vs veh, ING1 / RFU, TRMT61B / Fold change vs veh, TRMT61B / RFU, FUBP3 / Fold change vs veh, FUBP3 / RFU, TP53 / Fold change vs veh, TP53 / RFU, TNKS2 / Fold change vs veh, TNKS2 / RFU, ZFP14 / Fold change vs veh, ZFP14 / RFU, ACTR2 / Fold change vs veh, ACTR2 / RFU, PPP3R1 / Fold change vs veh, PPP3R1 / RFU, PIK3R1 / Fold change vs veh, PIK3R1 / RFU, HNRNPA1 / Fold change vs veh, HNRNPA1 / RFU, RNF170 / Fold change vs veh, RNF170 / RFU, ZNF28 / Fold change vs veh, ZNF28 / RFU, RNGTT / Fold change vs veh, RNGTT / RFU, OGT / Fold change vs veh, OGT / RFU, BRD1 / Fold change vs veh, BRD1 / RFU, MARS / Fold change vs veh, MARS / RFU, ZNF655 / Fold change vs veh, ZNF655 / RFU, FAHD1 / Fold change vs veh, FAHD1 / RFU, BDP1 / Fold change vs veh, BDP1 / RFU, LRRCC1 / Fold change vs veh, LRRCC1 / RFU, ARID1A / Fold change vs veh, ARID1A / RFU, ZNF146 / Fold change vs veh, ZNF146 / RFU, ZNF330 / Fold change vs veh, ZNF330 / RFU, GPN3 / Fold change vs veh, GPN3 / RFU, C9orf123 / Fold change vs veh, C9orf123 / RFU, N4BP2L2 / Fold change vs veh, N4BP2L2 / RFU, ARFIP1 / Fold change vs veh, ARFIP1 / RFU, FAM179B / Fold change vs veh, FAM179B / RFU, BCL10 / Fold change vs veh, BCL10 / RFU, UHRF1BP1L / Fold change vs veh, UHRF1BP1L / RFU, BET1 / Fold change vs veh, BET1 / RFU, CNOT2 / Fold change vs veh, CNOT2 / RFU, ZNF268 / Fold change vs veh, ZNF268 / Fold change vs veh, ZNF507 / RFU, DGCR2 / Fold change vs veh, DGCR2 / RFU, WDSUB1 / Fold change vs veh, WDSUB1 / Fold change vs veh, HSP90B1 /// MIR3652 / RFU, ADSS / Fold change vs veh, ADSS / RFU, GK / Fold change vs veh, GK / RFU, ZNF148 / Fold change vs veh, ZNF148 / RFU, TAF9 / Fold change vs veh, TAF9 / RFU, SLC1A5 / Fold change vs veh, SLC1A5 / RFU, SLMO2 / Fold change vs veh, SLMO2 / RFU, ABCC4 / Fold change vs veh, ABCC4 / RFU, LOC101060439 /// RAP1B / Fold change vs veh, LOC101060439 /// RAP1B / RFU, RFX7 / Fold change vs veh, RFX7 / RFU, GTPBP10 / Fold change vs veh, GTPBP10 / RFU, CNEP1R1 / Fold change vs veh, CNEP1R1 / RFU, BIVM-ERCC5 /// ERCC5 / Fold change vs veh, BIVM-ERCC5 /// ERCC5 / RFU, ILF3 / Fold change vs veh, ILF3 / RFU 11762660_at / Fold change /veh 11762660_at / RFU VCAN (11757783_s_at) / Fold change /veh VCAN (11757783_s_at) / RFU DDX43 (11728927_at) / Fold change /veh DDX43 (11728927_at) / RFU KRT8 (11758188_x_at) / Fold change /veh KRT8 (11758188_x_at) / RFU NKD1 (11759106_at) / Fold change /veh NKD1 (11759106_at) / RFU SRD5A1 (11742802_a_at) / Fold change /veh SRD5A1 (11742802_a_at) / RFU TPSAB1 /// TPSB2 (11721975_s_at) / Fold change /veh TPSAB1 /// TPSB2 (11721975_s_at) / RFU GSTM3 (11746129_a_at) / Fold change /veh GSTM3 (11746129_a_at) / RFU IL23R (11737362_x_at) / Fold change /veh IL23R (11737362_x_at) / RFU TMEM51 (11727254_a_at) / Fold change /veh TMEM51 (11727254_a_at) / RFU PIWIL2 (11732686_x_at) / Fold change /veh PIWIL2 (11732686_x_at) / RFU ORM1 (11744905_x_at) / Fold change /veh ORM1 (11744905_x_at) / RFU CCDC152 (11743942_at) / Fold change /veh CCDC152 (11743942_at) / RFU ECM1 (11717891_a_at) / Fold change /veh ECM1 (11717891_a_at) / RFU IL23R (11748794_a_at) / Fold change /veh IL23R (11748794_a_at) / RFU TNFAIP8L3 (11732012_x_at) / Fold change /veh TNFAIP8L3 (11732012_x_at) / RFU MBOAT4 (11741988_at) / Fold change /veh MBOAT4 (11741988_at) / RFU 11764193_at / Fold change /veh 11764193_at / RFU TMEM53 (11763286_at) / Fold change /veh TMEM53 (11763286_at) / RFU MAGEB2 (11727129_at) / Fold change /veh MAGEB2 (11727129_at) / RFU TMEM200A (11744735_a_at) / Fold change /veh TMEM200A (11744735_a_at) / RFU CCDC152 (11751479_a_at) / Fold change /veh CCDC152 (11751479_a_at) / RFU FAM211A (11726209_a_at) / Fold change /veh FAM211A (11726209_a_at) / RFU RGS16 (11746705_a_at) / Fold change /veh RGS16 (11746705_a_at) / RFU VCAN (11755009_s_at) / Fold change /veh VCAN (11755009_s_at) / RFU RHOB (11743442_s_at) / Fold change /veh RHOB (11743442_s_at) / RFU RGS16 (11720943_a_at) / Fold change /veh RGS16 (11720943_a_at) / RFU RGS16 (11720944_at) / Fold change /veh RGS16 (11720944_at) / RFU, VPS4B / Fold change vs veh, VPS4B / RFU, CREB1 / Fold change vs veh, CREB1 / RFU, DNAJC13 / Fold change vs veh, DNAJC13 / RFU, GNAQ / Fold change vs veh, GNAQ / RFU, CDK5R1 / Fold change vs veh, CDK5R1 / RFU, ZRANB3 / Fold change vs veh, ZRANB3 / RFU, CUL4A / Fold change vs veh, CUL4A / RFU, CCNY / Fold change vs veh, CCNY / RFU, UFL1 / Fold change vs veh, UFL1 / RFU, COG3 / Fold change vs veh, COG3 / RFU, DIAPH2 / Fold change vs veh, DIAPH2 / RFU, SKA2 / Fold change vs veh, SKA2 / RFU, AFF3 / Fold change vs veh, AFF3 / RFU, LMF1 / Fold change vs veh, LMF1 / RFU, IPO11 / Fold change vs veh, IPO11 / RFU, DFFB / Fold change vs veh, DFFB / RFU, FOXP1 / Fold change vs veh, FOXP1 / RFU, CARD8 / Fold change vs veh, CARD8 / RFU, STRN3 / Fold change vs veh, STRN3 / RFU, ADK / Fold change vs veh, ADK / RFU, RASSF2 / Fold change vs veh, RASSF2 / RFU, WIPF1 / Fold change vs veh, WIPF1 / RFU, LARP1B / Fold change vs veh, LARP1B / RFU, RASA1 / Fold change vs veh, RASA1 / RFU, RB1 / Fold change vs veh, RB1 / RFU, PPFIA1 / Fold change vs veh, PPFIA1 / RFU, MAT2A / Fold change vs veh, MAT2A / RFU, CCT5 / Fold change vs veh, CCT5 / RFU, WDR92 / Fold change vs veh, WDR92 / RFU, CUX1 / Fold change vs veh, CUX1 / RFU, TTC7A / Fold change vs veh, TTC7A / RFU, TMEM135 / Fold change vs veh, TMEM135 / RFU, DEPTOR / Fold change vs veh, DEPTOR / RFU, CPM / Fold change vs veh, CPM / RFU, DNAJB6 / Fold change vs veh, DNAJB6 / RFU, CACNA2D3 / Fold change vs veh, CACNA2D3 / RFU, DTX4 / Fold change vs veh, DTX4 / RFU, TFCP2 / Fold change vs veh, TFCP2 / RFU, GMCL1 /// GMCL1P1 / Fold change vs veh, GMCL1 /// GMCL1P1 / RFU, AEBP2 / Fold change vs veh, AEBP2 / RFU, SNHG1 /// SNORD22 /// SNORD25 /// SNORD26 /// SNORD27 /// SNORD28 /// SNORD29 /// SNORD31 / Fold change vs veh, SNHG1 /// SNORD22 /// SNORD25 /// SNORD26 /// SNORD27 /// SNORD28 /// SNORD29 /// SNORD31 / Fold change (Aza/veh), C12orf56 (ProbeSet 11735607_a_at) / Fold change (ACY-1035/veh), C12orf56 (ProbeSet 11735607_a_at) / Fold change (Aza/veh), FGFR1OP (ProbeSet 11751329_s_at) / Fold change (ACY-1035/veh), FGFR1OP (ProbeSet 11751329_s_at) / Fold change (Aza/veh), VPS36 (ProbeSet 11739960_a_at) / Fold change (ACY-1035/veh), VPS36 (ProbeSet 11739960_a_at) / RFU SYPL1 (11715823_x_at) / Fold change /veh SYPL1 (11715823_x_at) / RFU IGFBP7 (11715501_s_at) / Fold change /veh IGFBP7 (11715501_s_at) / RFU REEP3 (11722064_at) / Fold change /veh REEP3 (11722064_at) / RFU IGLL1 (11728026_x_at) / Fold change /veh IGLL1 (11728026_x_at): dose or concentration left out as unconfirmed
Conditions: ProbeSet 11729384_s_at; LIST D

Nc1ncn([C@@H]2O[C@H](CO)[C@@H](O)[C@H]2O)c(=O)n1 [azacitidine]
RFU, CCNY: 167.26 RFU

From paper PMC5218480 (PLoS ONE, 2017)
